From patent US12091425B2 (AMGEN INC., priority 2016, dated 2024)
Values belong to the compound of their own block, whether it stands above or below them.

Legend:
[1] = biological target: T1, Mcl-1/Bim interaction, recombinant human Mcl-1 (171-327) (Homo sapiens, UniProt Q07820); assay: Cell free Mcl-1: Bim Affinity Assay (Mcl-1 HTRF); type: binding
T1 construct: made in house
Summary of the method: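 Displacement of biotinylated Bim 51-76 peptide is followed by TR-FRET. Incubation runs overnight. Duplicate points are fitted with a four-parameter sigmoid to yield IC50.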

[2] = test system: OPM-2 human multiple myeloma cell line; assay: Cell Viability Assay (OPM-2 10 FBS); type: cell-based; conditions: OPM-2 cells, CellTiter-Glo
Procedure: Cell Viability Assay (OPM-2 10 FBS)
Cells were seeded into 384-well plates at 3000 cells/well density in complete growth medium containing 10% FBS, and incubated for 16 h with serially diluted test compounds in a 37° C. incubator with 5% CO2. Cell viability was tested using CellTiter-Glo® assay (Promega, Madison, WI) according to the manufacturer recommendations. Luminescence was determined using an EnVision® Multilabel plate reader 25 min after the addition of detection reagent. IC50 values were then calculated with Xlfit using a logistical 4-parameter fit model in GraphPad Prism (GraphPad Software, San Diego, CA) or in Genedata Screener® (Genedata, Basel, Switzerland).

[3] = TR-FRET, 0.1 nM Mcl-1 (171-327), 0.05 nM biotin-Bim (51-76)
[4] = cell free Mcl-1:Bim TR-FRET, recombinant human Mcl-1 (171-327)
[5] = Homo sapiens, OPM-2, 16 h, 16 h
[6] = Homo sapiens, OPM-2, 16 h, 16 h incubation

T1 sequence (Q07820 171-327): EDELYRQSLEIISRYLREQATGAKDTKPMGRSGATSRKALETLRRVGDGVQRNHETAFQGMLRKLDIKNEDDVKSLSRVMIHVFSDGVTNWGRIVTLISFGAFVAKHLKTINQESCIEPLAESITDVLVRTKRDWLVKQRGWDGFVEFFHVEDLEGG

Compound: O=C1NS(=O)(=O)[C@@H]2C[C@H](O)C[C@H]2C/C=C/[C@H](O)[C@@H]2CC[C@H]2CN2C[C@@]3(CCCc4cc(Cl)ccc43)COc3ccc1cc32 (single isomer, unassigned) [Example 335]
IC50 [1, 3]: 0.263 nM | IC50 ([2]; 16 h): 2120 nM

Compound: CO[C@H]1/C=C/C[C@H]2CC[C@@H]2S(=O)(=O)NC(=O)c2ccc3c(c2)N(C[C@@H]2CC[C@H]21)C[C@@]1(CCCc2cc(Cl)ccc21)CO3 [Example 95, (1S,3′R,6′R,7′S,8′E,11′R,14′S)-6-chloro-7′-methoxy-3,4-dihydro-2H,17′H-spiro[naphthalene-1,24′-[22]oxa[15]thia[1,16]diazapentacyclo[16.7.2.0^3,6.0^11,14.0^21,26]heptacosa[8,18,20,26]tetraen]-17′-one 15′,15′-dioxide]
IC50 [1, 3]: 0.46 nM | IC50 [2, 5]: 572 nM

Compound: C[C@@H]1[C@@H](C)C/C=C/[C@H](OCC(=O)N2CC(O)(C(F)(F)F)C2)[C@@H]2CC[C@H]2CN2C[C@@]3(CCCc4cc(Cl)ccc43)COc3ccc(cc32)C(=O)NS1(=O)=O [Example 306, (1S,3′R,6′R,7′S,8′E,11′S,12′R)-6-chloro-7′-(2-(3-hydroxy-3-(trifluoromethyl)-1-azetidinyl)-2-oxoethoxy)-11′,12′-dimethyl-3,4-dihydro-2H,15′H-spiro[naphthalene-1,22′-[20]oxa[13]thia[1,14]diazatetracyclo[14.7.2.0^3,6.0^19,24]pentacosa [8,16,18,24]tetraen]-15′-one 13′,13′-dioxide]
IC50 [1, 3]: 1.2 nM | IC50 [2, 5]: 1140 nM

Compound: CCN1CC/C=C/[C@H](OCC(=O)N2CCCC2)[C@@H]2CC[C@H]2CN2C[C@@]3(CCCc4cc(Cl)ccc43)COc3ccc(cc32)C(=O)NS1(=O)=O [Example 89, (1S,3′R,6′R,7′S,8′E)-6-chloro-12′-ethyl-7′-(2-oxo-2-(1-pyrrolidinyl)ethoxy)-3,4-dihydro-2H,15′H-spiro[naphthalene-1,22′-[20]oxa[13]thia[1,12,14]triazatetracyclo[14.7.2.0^3,6.0^19,24]pentacosa[8,16,18,24]tetraen]-15′-one 13′,13′-dioxide]
IC50 [1, 3]: 0.666 nM | IC50 [2, 5]: 798 nM

Compound: O=C1NS(=O)(=O)C[C@@H]2C[C@@H]2/C=C/[C@H](O)[C@@H]2CC[C@H]2CN2C[C@@]3(CCCc4cc(Cl)ccc43)COc3ccc1cc32 (single isomer, unassigned) [Example 785]
IC50 [1, 4]: 3.02 nM | IC50 ([2]; 16 h): 16000 nM

Compound: C[C@@H]1[C@@H](C)C/C=C/[C@H](OCC(=O)N2CC[C@H](O)C2)[C@@H]2CC[C@H]2CN2C[C@@]3(CCCc4cc(Cl)ccc43)COc3ccc(cc32)C(=O)NS1(=O)=O [Example 310, (1S,3′R,6′R,7′S,8′E,11′S,12′R)-6-chloro-7′-(2-((3S)-3-hydroxy-1-pyrrolidinyl)-2-oxoethoxy)-11′,12′-dimethyl-3,4-dihydro-2H,15′H-spiro[naphthalene-1,22′-[20]oxa[13]thia[1,14]diazatetracyclo[14.7.2.0^3,6.0^19,24]pentacosa [8,16,18,24]tetraen]-15′-one 13′,13′-dioxide]
IC50 [1, 3]: 0.109 nM | IC50 [2, 5]: 792 nM

Compound: O=C1NS(=O)(=O)N(CC2CC2)CC/C=C/[C@H](O)[C@@H]2CC[C@H]2CN2C[C@@]3(CCCc4cc(Cl)ccc43)COc3ccc1cc32 [Example 20, (1S,3′R,6′R,7′S,8′E)-6-chloro-12′-(cyclopropylmethyl)-7′-hydroxy-3,4-dihydro-2H,15′H-spiro[naphthalene-1,22′-[20]oxa[13]thia[1,12,14]triazatetracyclo[14.7.2.0^3,6.0^19,24]pentacosa[8,16,18,24]tetraen]-15′-one 13,13′-dioxide]
IC50 [1, 3]: 0.85 nM | IC50 [2, 5]: 818 nM

Compound: COC(=O)C[C@@H]1CC/C=C/[C@H](OC)[C@@H]2CC[C@H]2CN2C[C@@]3(CCCc4cc(Cl)ccc43)COc3ccc(cc32)C(=O)NS1(=O)=O [Example 624]
IC50 [1, 4]: 0.338 nM | IC50 ([2]; 16 h): 455 nM

Compound: CO[C@H]1/C=C/C[C@H]2C[C@@H]2S(=O)(=O)NC(=O)c2ccc3c(c2)N(C[C@@H]2CC[C@H]21)C[C@@]1(CCCc2cc(Cl)ccc21)CO3 (single isomer, unassigned) [Example 804]
IC50 [1, 4]: 0.658 nM | IC50 ([2]; 16 h): 377 nM

Compound: C[C@@H]1[C@@H](C)C/C=C/[C@H](OCCN2CCC(F)(F)CC2)[C@@H]2CC[C@H]2CN2C[C@@]3(CCCc4cc(Cl)ccc43)COc3ccc(cc32)C(=O)NS1(=O)=O [Example 10, (1S,3′R,6′R,7′S,8′E,11′S,12′R)-6-chloro-7′-(2-(4,4-difluoro-1-piperidinyl)ethoxy)-11′,12′-dimethyl-3,4-dihydro-2H,15′H-spiro[naphthalene-1,22′-[20]oxa[13]thia[1,14]diazatetracyclo[14.7.2.0^3,6.0^19,24]pentacosa[8,16,18,24]tetraen]-15′-one-13,13′-dioxide]
IC50 [1, 3]: 2.97 nM | IC50 [2, 5]: 630 nM

Second part, the compound after the results:

IC50 [1, 4]: 1.5 nM | IC50 [2, 5]: 311 nM
Compound: C[C@@H]1[C@@H](C)C/C=C/[C@H](OCCCl)[C@@H]2CC[C@H]2CN2C[C@@]3(CCCc4cc(Cl)ccc43)COc3ccc(cc32)C(=O)NS1(=O)=O [Example 511, (1S,3′R,6′R,7′S,8′E,11′S,12′R)-6-chloro-7′-(2-chloroethoxy)-11′,12′-dimethyl-3,4-dihydro-2H,15′H-spiro[naphthalene-1,22′-[20]oxa[13]thia[1,14]diazatetracyclo[14.7.2.0^3,6.0^19,24]pentacosa [8,16,18,24]tetraen]-15′-one 13′,13′-dioxide]

IC50 [1, 4]: 11.9 nM | IC50 [2, 5]: 473 nM
Compound: C[C@@H]1[C@@H](C)C/C=C/[C@H](OCCC2CCOCC2)[C@@H]2CC[C@H]2CN2C[C@@]3(CCCc4cc(Cl)ccc43)COc3ccc(cc32)C(=O)NS1(=O)=O [Example 722, (1S,3′R,6′R,7′S,8′E,11′S,12′R)-6-chloro-11′,12′-dimethyl-7′-(2-(tetrahydro-2H-pyran-4-yl)ethoxy)-3,4-dihydro-2H,15′H-spiro [naphthalene-1,22′-[20]oxa[13]thia[1,14]diazatetracyclo [14.7.2.0^3,6.0^19,24]pentacosa[8,16,18,24]tetraen]-15′-one-13′, 13′-dioxide]

IC50 [1, 3]: 0.519 nM | IC50 [2, 5]: 509 nM
Compound: CNC(=O)C(OC)C1C=CC2CCC2CN2CC3(CCCc4cc(Cl)ccc43)COc3ccc(cc32)C(=O)NS(=O)(=O)C(C)C(C)C1 (single isomer, unassigned) [Example 361]

IC50 [1, 3]: 0.248 nM | IC50 [2, 5]: 284 nM
Compound: O=C1NS(=O)(=O)[C@@H]2CCCC[C@H]2C/C=C/[C@H](O)[C@@H]2CC[C@H]2CN2C[C@@]3(CCCc4cc(Cl)ccc43)COc3ccc1cc32 (single isomer, unassigned) [Example 331]

IC50 [1, 3]: 0.851 nM | IC50 [2, 6]: 330 nM
Compound: CC[C@@H]1CC/C=C/[C@H](OCCS(=O)(=O)N(C)C)[C@@H]2CC[C@H]2CN2C[C@@]3(CCCc4cc(Cl)ccc43)COc3ccc(cc32)C(=O)NS1(=O)=O [Example 989, 2-(((1S,3′R,6′R,7′S,8′E,12′R)-6-chloro-12′-ethyl-13′,13′-dioxido-15′-oxo-3,4-dihydro-2H-spiro[naphthalene-1,22′-[20]oxa[13]thia[1,14]diazatetracyclo[14.7.2.0^3,6.0^19,24]pentacosa [8,16,18,24]tetraen]-7′-yl)oxy)-N,N-dimethylethanesulfonamide]

IC50 [1, 3]: 0.493 nM | IC50 [2, 6]: 692 nM
Compound: COC[C@H]1C/C=C/[C@H](O)[C@@H]2CC[C@H]2CN2C[C@@]3(CCCc4cc(Cl)ccc43)COc3ccc(cc32)C(=O)NS(=O)(=O)C1 [Example 1087, (1S,3′R,6′R,7′S,8′E,11′R)-6-chloro-7′-hydroxy-11′-(methoxymethyl)-3,4-dihydro-2H,15′H-spiro [naphthalene-1,22′-[20]oxa[13]thia[1,14]diazatetracyclo[14.7.2.0^3,6.0^19,24]pentacosa [8,16,18,24]tetraen]-15′-one 13′,13′-dioxide]

IC50 [1, 3]: 1.68 nM | IC50 ([2]; 16 h): 1940 nM
Compound: O=C1NS(=O)(=O)[C@H]2CCC[C@H]2C/C=C/[C@H](O)[C@@H]2CC[C@H]2CN2C[C@@]3(CCCc4cc(Cl)ccc43)COc3ccc1cc32 (single isomer, unassigned) [Example 324]

IC50 [1, 3]: 0.303 nM | IC50 [2, 5]: 180 nM
Compound: COCCOCCO[C@H]1/C=C/C[C@H](C)[C@@H](C)S(=O)(=O)NC(=O)c2ccc3c(c2)N(C[C@@H]2CC[C@H]21)C[C@@]1(CCCc2cc(Cl)ccc21)CO3 [Example 377, (1S,3′R,6′R,7′S,8′E,11′S,12′R)-6-chloro-7′-(2-(2-methoxyethoxy)ethoxy)-11′,12′-dimethyl-3,4-dihydro-2H,15′H-spiro[naphthalene-1,22′-[20]oxa[13]thia[1,14]diazatetracyclo[14.7.2.0^3,6.0^19,24]pentacosa[8,16,18,24]tetraen]-15′-one 13′,13′-dioxide]

IC50 [1, 3]: 0.24 nM | IC50 [2, 5]: 140 nM
Compound: COCCOCCOCCO[C@H]1/C=C/C[C@H](C)[C@@H](C)S(=O)(=O)NC(=O)c2ccc3c(c2)N(C[C@@H]2CC[C@H]21)C[C@@]1(CCCc2cc(Cl)ccc21)CO3 [Example 378, (1S,3′R,6′R,7′S,8′E,11′S,12′R)-6-chloro-7′-(2-(2-(2-methoxyethoxy)ethoxy)ethoxy)-11′,12′-dimethyl-3,4-dihydro-2H,15′H-spiro[naphthalene-1,22′-[20]oxa[13]thia[1,14]diazatetracyclo[14.7.2.0^3,6.0^19,24]pentacosa[8,16,18,24]tetraen]-15′-one 13′,13′-dioxide]
